6 molecules from US10980238B2, “Alkali metal salt for use in treatment of varroa destructor mite infestation of honey bees” (Universität Hohenheim, priority 2015, dated 2021) can be followed below.

Values joined by “and” are separate entries in the source; they are usually repeats but may differ in a detail not shown here. Identical values can stand only once. Like-named read-outs stand apart in the source and are kept apart here.

One data set deals with Varroa destructor. The settings on record: for effect on mites during the 7-day treatment period: 4 mM, data not shown; for Number of dead mites, Day 1 / Number of dead mites, Day 2 / Number of dead mites, Day 3 / Number of dead mites, Day 4 / Number of dead mites, Day 5 / Number of dead mites, Day 6 / Number of dead mites, Day 7: Li-salt 25 mM in sucrose syrup for 7 days; for Number of dead mites, Day 1 / Number of dead mites, Day 2 / Number of dead mites, Day 3 / Number of dead mites, Day 4 / Number of dead mites, Day 5 / Number of dead mites, Day 6 / Number of dead mites, Day 7 / Number of dead mites, Sum: 25 mites per cage, mean of three replicates; for Number of dead mites, Sum: Li-salt 25 mM in sucrose syrup, days 1-7. The source says:
(§1) The bees were fed with Li-salt/sucrose solutions for 7 days. Survival rate of bees and mites were monitored daily and dead bees or mites were removed.

Data set [1] concerns bees. The settings on record: for impact on bee viability: 4 mM, 7-day treatment period, data not shown; for Number of dead bees, Day 1 / Number of dead bees, Day 2 / Number of dead bees, Day 3 / Number of dead bees, Day 4 / Number of dead bees, Day 5 / Number of dead bees, Day 6 / Number of dead bees, Day 7: Li-salt 25 mM in sucrose syrup for 7 days; for Number of dead bees, Day 1 / Number of dead bees, Day 2 / Number of dead bees, Day 3 / Number of dead bees, Day 4 / Number of dead bees, Day 5 / Number of dead bees, Day 6 / Number of dead bees, Day 7 / Number of dead bees, Sum: 50 bees per cage, mean of three replicates; for Number of dead bees, Sum: Li-salt 25 mM in sucrose syrup, days 1-7.
Source text: as §1

The test system of data set [2] is bees. As to the kind of experiment: Experiment 4 cage test of MgCl2 (50 bees, 20 mites): bee health. In kind it is in vivo, Apis mellifera. The settings on record: 100 mM in sucrose syrup. The procedure:
To test the activity of bivalent ions we dissolved MgCl2 in sucrose syrup at a final concentration of 100 mM. 2 cages of 50 bees to which 20 mites were added were fed with sucrose syrup only and syrup containing 100 mM MgCl2.

Another data set concerns Varroa mites. As to the kind of experiment: Experiment 5 cage comparison of LiCl, NaCl and MgCl2: dead mites. In kind it is in vivo, Varroa destructor. The settings on record: for Number of dead mites, Day 1 / Number of dead mites, Day 2 / Number of dead mites, Day 3 / Number of dead mites, Day 4 / Number of dead mites, Day 5 / Number of dead mites, Day 6 / Number of dead mites, Day 7 / Number of dead mites, Sum: 25 mites per cage, mean of 6 cages (LiCl) or 3 cages; for Number of dead mites, Sum: 25 mM in 70% sucrose, days 1-7. Here is the method: (§2) In a further experiment LiCl, NaCl and MgCl2 were selected and their acaricidal activity compared. The experiment was performed in cages of 50 bees, to each of which 25 mites were added. Bees in control cages received sucrose only. LiCl, NaCl or MgCl2 were added to 70% sucrose solutions at a final concentration of 25 mM each and fed to the bees for seven days. Survival rate of bees and mites were monitored daily. Dead bees and mites were removed from the cages.
(§3) The numbers represent mean values derived from 6 cages. […] Numbers for NaCl, MgCl2 and control represent mean values derived from 3 separate cages.

Data set [3] relates to bees. The settings on record: 50 bees per cage; for Number of dead bees, Day 1 / Number of dead bees, Day 2 / Number of dead bees, Day 3 / Number of dead bees, Day 4 / Number of dead bees, Day 5 / Number of dead bees, Day 6 / Number of dead bees, Day 7: 25 mM in 70% sucrose for seven days; for Number of dead bees, Day 1 / Number of dead bees, Day 2 / Number of dead bees, Day 3 / Number of dead bees, Day 4 / Number of dead bees, Day 5 / Number of dead bees, Day 6 / Number of dead bees, Day 7 / Number of dead bees, Sum: mean of 6 cages (LiCl) or 3 cages; for Number of dead bees, Sum: days 1-7. The procedure:
as §2, §3

The mark [4] stands for this setting: 25 mM in 70% sucrose for seven days.

As for `O=C([O-])[O-].[Li+].[Li+]` [Li-carbonate, lithium carbonate], in the data set on Varroa destructor, the “effect on mites during the 7-day treatment period” value is reported as “killed all mites”; the “Number of dead mites, Day 1” value is given as 0.3; the “Number of dead mites, Day 2” value is listed as 3.0; the “Number of dead mites, Day 3” value is given as 20.0. For the same molecule, in the data set with Varroa destructor, the “Number of dead mites, Day 4” value is listed as 1.7; the “Number of dead mites, Day 5” value came to 0.0; the “Number of dead mites, Day 6” value turned out to be 0.0; the “Number of dead mites, Day 7” value came to 0.0. Besides, the “Number of dead mites, Sum” value with Varroa destructor is listed as 25.0. Besides, in the data set on bees [1], the “impact on bee viability” value was “without a significant negative impact on bee viability”; the “Number of dead bees, Day 1” value is given as 0.7; the “Number of dead bees, Day 2” value turned out to be 0.0; the “Number of dead bees, Day 3” value is 0.0. For the same molecule, in the data set with bees [1], the “Number of dead bees, Day 4” value is 0.0; the “Number of dead bees, Day 5” value was determined as 0.0; the “Number of dead bees, Day 6” value is recorded as 0.3; the “Number of dead bees, Day 7” value is 0.7. Also, the “Number of dead bees, Sum” value in the data set with bees [1] worked out at 1.7.
Regarding `O=C([O-])CC(O)(CC(=O)[O-])C(=O)[O-].[Li+].[Li+].[Li+]` [Li-citrate, lithium citrate], in the data set on Varroa destructor, the “effect on mites during the 7-day treatment period” value is “killed all mites”; the “Number of dead mites, Day 1” value is recorded as 0.3; the “Number of dead mites, Day 2” value is recorded as 10.0; the “Number of dead mites, Day 3” value is on record as 14.7. Moreover, in the data set on Varroa destructor, the “Number of dead mites, Day 4” value was 0.0; the “Number of dead mites, Day 5” value was 0.0; the “Number of dead mites, Day 6” value is recorded as 0.0; the “Number of dead mites, Day 7” value was 0.0. Also, the “Number of dead mites, Sum” value in the data set with Varroa destructor is reported as 25.0. In the data set on bees [1], the “impact on bee viability” value is “without a significant negative impact on bee viability”; the “Number of dead bees, Day 1” value was 0.0; the “Number of dead bees, Day 2” value is recorded as 0.0; the “Number of dead bees, Day 3” value worked out at 0.3. For the same molecule, in the data set with bees [1], the “Number of dead bees, Day 4” value is listed as 0.0; the “Number of dead bees, Day 5” value is 0.7; the “Number of dead bees, Day 6” value is 1.7; the “Number of dead bees, Day 7” value came out at 0.3. Moreover, the “Number of dead bees, Sum” value in the data set with bees [1] turned out to be 3.0.
Consider `CC(O)C(=O)[O-].[Li+]` (centres unmarked) [Li-lactate, lithium lactate], for which, in the data set with Varroa destructor, the “effect on mites during the 7-day treatment period” value is listed as “killed all mites”; the “Number of dead mites, Day 1” value turned out to be 0.7; the “Number of dead mites, Day 2” value was 14.0; the “Number of dead mites, Day 3” value was found to be 6.3. In addition, in the data set with Varroa destructor, the “Number of dead mites, Day 4” value came out at 4.0; the “Number of dead mites, Day 5” value amounted to 0.0; the “Number of dead mites, Day 6” value was determined as 0.0; the “Number of dead mites, Day 7” value was determined as 0.0. Also, in the data set on Varroa destructor, the “Number of dead mites, Sum” value turned out to be 25.0. In the data set with bees [1], the “impact on bee viability” value was “without a significant negative impact on bee viability”; the “Number of dead bees, Day 1” value was 0.3; the “Number of dead bees, Day 2” value is 0.0; the “Number of dead bees, Day 3” value is recorded as 0.0. Moreover, in the data set with bees [1], the “Number of dead bees, Day 4” value stood at 0.7; the “Number of dead bees, Day 5” value turned out to be 2.0; the “Number of dead bees, Day 6” value worked out at 0.3; the “Number of dead bees, Day 7” value worked out at 1.7. For the same molecule, in the data set on bees [1], the “Number of dead bees, Sum” value was found to be 5.0.
Turning to `O=S(=O)([O-])[O-].[Li+].[Li+]` [Li-sulfate, lithium sulfate], in the data set with Varroa destructor, the “effect on mites during the 7-day treatment period” value is on record as “killed all mites”; the “Number of dead mites, Day 1” value was 0.7; the “Number of dead mites, Day 2” value came to 18.0; the “Number of dead mites, Day 3” value is recorded as 5.7. Moreover, in the data set with Varroa destructor, the “Number of dead mites, Day 4” value worked out at 0.7; the “Number of dead mites, Day 5” value was 0.0; the “Number of dead mites, Day 6” value came to 0.0; the “Number of dead mites, Day 7” value is on record as 0.0. In addition, the “Number of dead mites, Sum” value with Varroa destructor stood at 25.0. Also, in the data set with bees [1], the “impact on bee viability” value is given as “without a significant negative impact on bee viability”; the “Number of dead bees, Day 1” value is given as 0.0; the “Number of dead bees, Day 2” value is on record as 0.0; the “Number of dead bees, Day 3” value is 0.0. For the same molecule, in the data set with bees [1], the “Number of dead bees, Day 4” value is 1.0; the “Number of dead bees, Day 5” value is 3.7; the “Number of dead bees, Day 6” value came out at 1.7; the “Number of dead bees, Day 7” value is given as 0.0. The “Number of dead bees, Sum” value with bees [1] came out at 6.3.
`[Cl-].[Cl-].[Mg+2]` [MgCl2]: the “effect on bee health” value with bees [2] was “impair bee health substantially”. In addition, in the data set with Varroa mites (setting [4]), the “Number of dead mites, Day 1” value turned out to be 0.3; the “Number of dead mites, Day 2” value turned out to be 1.0; the “Number of dead mites, Day 3” value amounted to 1.0; the “Number of dead mites, Day 4” value is listed as 3.7. Further, in the data set with Varroa mites (setting [4]), the “Number of dead mites, Day 5” value was 0.7; the “Number of dead mites, Day 6” value is recorded as 0.0; the “Number of dead mites, Day 7” value is reported as 0.0. Further, in the data set with Varroa mites, the “Number of dead mites, Sum” value came out at 6.7. Also, in the data set with bees [3], the “Number of dead bees, Day 1” value is 0.0; the “Number of dead bees, Day 2” value is 18.0; the “Number of dead bees, Day 3” value is reported as 18.3; the “Number of dead bees, Day 4” value is listed as 9.3. In the data set on bees [3], the “Number of dead bees, Day 5” value came out at 4.3; the “Number of dead bees, Day 6” value is given as 0.0; the “Number of dead bees, Day 7” value was found to be 0.0. For the same molecule, in the data set with bees [3] (25 mM in 70% sucrose), the “Number of dead bees, Sum” value is reported as 50.0 and the “time after which all bees were dead” value is given as 5 days.
Consider `[Cl-].[Na+]` [NaCl], for which, in the data set on Varroa mites (setting [4]), the acaricidal effect entry was “fails to exhibit an acaricidal effect”; the “Number of dead mites, Day 1” value is listed as 0.0; the “Number of dead mites, Day 2” value is 0.3; the “Number of dead mites, Day 3” value was 0.0. In the data set on Varroa mites (setting [4]), the “Number of dead mites, Day 4” value worked out at 0.0; the “Number of dead mites, Day 5” value was found to be 0.3; the “Number of dead mites, Day 6” value was 0.7; the “Number of dead mites, Day 7” value turned out to be 1.0. The “Number of dead mites, Sum” value in the data set on Varroa mites is 2 and 2.3. Further, in the data set with bees [3], the “Number of dead bees, Day 1” value is 0.0; the “Number of dead bees, Day 2” value is reported as 0.0; the “Number of dead bees, Day 3” value is 0.0; the “Number of dead bees, Day 4” value came to 0.3. Besides, in the data set on bees [3], the “Number of dead bees, Day 5” value was determined as 0.0; the “Number of dead bees, Day 6” value is reported as 0.0; the “Number of dead bees, Day 7” value is recorded as 1.3. In addition, the “Number of dead bees, Sum” value in the data set with bees [3] (25 mM in 70% sucrose) is 2 and 1.7.
